# Measurements taken from patent US4155912A, “2-Methylpenem-3-carboxylic acid antibiotics” (Bristol-Myers Company, priority 1977, dated 1979).
# Where two headings read alike, the source gives them in different places.
# How the values were obtained:
# bacteria [1] = details: as reported in literature; cited from earlier work
# β-lactamases = details: as reported in literature; cited from earlier work
# Str. pneumoniae A-9585 = assay: MIC by tube dilution, Str. pneumoniae A-9585; format: cell-based; details: Streptococcus pneumoniae, A9585, Str. pneumoniae A-9585, overnight, 37° C.
# Experimental: (§1) The in vitro minimum inhibitory concentrations (MIC) of d,l-2-methylpenem-3-carboxylic acid, (+)-2-methylpenem-3-carboxylic acid and (-)-2-methylpenem-3-carboxylic acid were determined for a number of microorganisms as determined by overnight incubation at 37° C. by tube dilution. Ampicillin was included as a comparison compound.
# Str. pyogenes A-9604 = assay: MIC by tube dilution, Str. pyogenes A-9604; format: cell-based; details: Streptococcus pyogenes, A9604, Str. pyogenes A-9604, overnight, 37° C.
# Experimental: as §1
# Staph. aureus A-9537 = assay: MIC by tube dilution, Staph. aureus A-9537; format: cell-based; details: Staphylococcus aureus, 37° C.
# Experimental: as §1
# [2] = system: Staph. aureus (Pen-Res) A-9606; assay: MIC by tube dilution, Staph. aureus (Pen-Res) A-9606; format: cell-based; details: overnight, 37° C.
# Experimental: as §1
# [3] = system: Staph. aureus (Meth-Res) A-15097; assay: MIC by tube dilution, Staph. aureus (Meth-Res) A-15097; format: cell-based; details: overnight, 37° C.
# Experimental: as §1
# Str. faecalis A-20688 = assay: MIC by tube dilution, Str. faecalis A-20688; format: cell-based; details: 37° C.
# Experimental: as §1
# E. coli A-15119 = assay: MIC by tube dilution, E. coli A-15119; format: cell-based; details: 37° C.
# Experimental: as §1
# E. coli A-20341-1 = assay: MIC by tube dilution, E. coli A-20341-1; format: cell-based; details: 37° C.
# Experimental: as §1
# K. pneumoniae A-15130 = assay: MIC by tube dilution, K. pneumoniae A-15130; format: cell-based; details: 37° C.
# Experimental: as §1
# K. pneumoniae A-20468 = assay: MIC by tube dilution, K. pneumoniae A-20468; format: cell-based; details: 37° C.; for MIC: Klebsiella pneumoniae, A20468, overnight
# Experimental: as §1
# Pr. mirabilis A-9900 = assay: MIC by tube dilution, Pr. mirabilis A-9900; format: cell-based; details: 37° C.
# Experimental: as §1
# Pr. vulgaris A-9716 = assay: MIC by tube dilution, Pr. vulgaris A-9716; format: cell-based; details: 37° C.
# Experimental: as §1
# Pr. morganii A-15153 = assay: MIC by tube dilution, Pr. morganii A-15153; format: cell-based; details: 37° C.
# Experimental: as §1
# Pr. rettgeri A-21205 = assay: MIC by tube dilution, Pr. rettgeri A-21205; format: cell-based; details: 37° C.; for M.I.C.: Pr. rettgeri A-21205, overnight
# Experimental: as §1
# Ser. marcescens A-20019 = assay: MIC by tube dilution, Ser. marcescens A-20019; format: cell-based; details: 37° C.
# Experimental: as §1
# Ent. cloacae A-9659 = assay: MIC by tube dilution, Ent. cloacae A-9659; format: cell-based; details: 37° C.
# Experimental: as §1
# Ent. cloacae A-9656 = assay: MIC by tube dilution, Ent. cloacae A-9656; format: cell-based; details: 37° C.
# Experimental: as §1
# Ps. aeruginosa A-9843A = assay: MIC by tube dilution, Ps. aeruginosa A-9843A; format: cell-based; details: overnight, 37° C.
# Experimental: as §1
# Ps. aeruginosa A-21213 = assay: MIC by tube dilution, Ps. aeruginosa A-21213; format: cell-based; details: 37° C.; for MIC: Pseudomonas aeruginosa, A21213, Ps. aeruginosa A-21213, overnight
# Experimental: as §1
# [4] = Mouse blood levels after oral administration; format: in vivo
# Excerpt: Blood level values represent averages of 4 experiments for
# d,l-2-methylpenem-3-carboxylic acid, 3 for ampicillin and 1 for
# Assay Organism: Bacillus megaterium A-9737
# in vivo = details: mouse, im, 40 mg/kg
# bacteria [5] = details: as reported in literature; cited from earlier work; remark: listed apart in the source
# [6] = blood, oral, 100 mg./kg., 5 minutes after administration, read-out: Blood Level
# [7] = blood, oral, 100 mg./kg., 10 minutes after administration, read-out: Blood Level
# [8] = blood, oral, 100 mg./kg., 15 minutes after administration, read-out: Blood Level
# [9] = blood, oral, 100 mg./kg., 30 minutes after administration, read-out: Blood Level
# [10] = blood, oral, 100 mg./kg., 45 minutes after administration, read-out: Blood Level
smiles,measurement,setting,value
CC(=O)NC=C[S+]([O-])C1=C(C(=O)O)N2C(=O)C(C(C)OS(=O)(=O)O)C2C1 (stereo not drawn),antibacterial activity,bacteria [1],some antibacterial activity
same,β-lactamase inhibition,β-lactamases,β-lactamase inhibitor
"CC1=C(C(=O)O)N2C(=O)C[C@H]2S1 (racemic) [d,l-2-methylpenem-3-carboxylic acid, 2-Methylpenem-3-carboxylic Acid]",MIC,Str. pneumoniae A-9585,0.03 µg/mL
same,MIC,Str. pyogenes A-9604,0.13 µg/mL
same,MIC,"Staph. aureus A-9537; A9537, Staph. aureus A-9537, overnight",0.13 µg/mL
same,MIC,"Staph. aureus A-9537; A9537, Staph. aureus A-9537 and 50% serum, overnight",8 µg/mL
same,MIC,[2]; Staphylococcus aureus,1 µg/mL
same,MIC,[3]; Staphylococcus aureus,1 µg/mL
same,MIC,"Str. faecalis A-20688; Enterococcus faecalis, A20688, Str. faecalis A-20688, overnight",32 µg/mL
same,MIC,"E. coli A-15119; Escherichia coli, A15119, E. coli A-15119, overnight",8 µg/mL
same,MIC,"E. coli A-20341-1; Escherichia coli, A203411, E. coli A-20341-1, overnight",16 µg/mL
same,MIC,"K. pneumoniae A-15130; Klebsiella pneumoniae, A15130, K. pneumoniae A-15130, overnight",16 µg/mL
same,MIC,K. pneumoniae A-20468,> 125 µg/mL
same,MIC,"Pr. mirabilis A-9900; Proteus mirabilis, A9900, Pr. mirabilis A-9900, overnight",8 µg/mL
same,MIC,"Pr. vulgaris A-9716; Proteus vulgaris, A9716, Pr. vulgaris A-9716, overnight",8 µg/mL
same,MIC,"Pr. morganii A-15153; Morganella morganii, A15153, Pr. morganii A-15153, overnight",16 µg/mL
same,MIC,"Pr. rettgeri A-21205; Providencia rettgeri, A21205, Pr. rettgeri A-21205, overnight",4 µg/mL
same,MIC,"Ser. marcescens A-20019; Serratia marcescens, A20019, Ser. marcescens A-20019, overnight",8 µg/mL
same,MIC,"Ent. cloacae A-9659; Enterobacter cloacae, A9659, Ent. cloacae A-9659, overnight",16 µg/mL
same,MIC,"Ent. cloacae A-9656; Enterobacter cloacae, A9656, Ent. cloacae A-9656, overnight",16 µg/mL
same,MIC,"Ps. aeruginosa A-9843A; Pseudomonas aeruginosa, A9843A",125 µg/mL
same,MIC,Ps. aeruginosa A-21213,> 125 µg/mL
same,concentration at 5 min,[4]; [6],28000 ng/mL
same,concentration at 10 min,[4]; [7],25100 ng/mL
same,concentration at 0.25 h,[4]; [8],18400 ng/mL
same,concentration at 0.5 h,[4]; [9],< 5600 ng/mL
same,concentration at 0.75 h,[4]; [10],< 3900 ng/mL
same,concentration at 1 h,"[4]; blood, oral, 100 mg./kg., 60 minutes after administration, read-out: Blood Level",< 4300 ng/mL
same,concentration at 2 h,"[4]; blood, oral, 100 mg./kg., 120 minutes after administration, read-out: Blood Level",< 4300 ng/mL
same,concentration at 5 min,in vivo,27100 ng/mL
same,concentration at 0.25 h,in vivo,12700 ng/mL
same,concentration at 0.5 h,in vivo,< 5900 ng/mL
same,concentration at 0.75 h,in vivo,< 5900 ng/mL
same,concentration at 1 h,in vivo,< 5900 ng/mL
CC1(C)S[C@@H]2[C@H](NC(=O)[C@H](N)c3ccc(O)cc3)C(=O)N2[C@H]1C(=O)O [Amoxicillin],concentration at 5 min,[4]; [6],1500 ng/mL
same,concentration at 10 min,[4]; [7],7100 ng/mL
same,concentration at 0.25 h,[4]; [8],9900 ng/mL
same,concentration at 0.5 h,[4]; [9],14000 ng/mL
same,concentration at 0.75 h,[4]; [10],15500 ng/mL
CC1(C)S[C@@H]2[C@H](NC(=O)[C@H](N)c3ccccc3)C(=O)N2[C@H]1C(=O)O [Ampicillin],concentration at 5 min,"[4]; in vivo, po, 100 mg/kg",2100 ng/mL
same,concentration at 10 min,"[4]; in vivo, po, 100 mg/kg",3900 ng/mL
same,concentration at 0.25 h,"[4]; in vivo, po, 100 mg/kg",6100 ng/mL
same,concentration at 0.5 h,"[4]; in vivo, po, 100 mg/kg",8200 ng/mL
same,concentration at 0.75 h,"[4]; in vivo, po, 100 mg/kg",6100 ng/mL
same,concentration at 1 h,"[4]; in vivo, po, 100 mg/kg",7900 ng/mL
same,concentration at 2 h,"[4]; in vivo, po, 100 mg/kg",2800 ng/mL
same,concentration at 5 min,in vivo,20800 ng/mL
same,concentration at 0.25 h,in vivo,22800 ng/mL
same,concentration at 0.5 h,in vivo,20000 ng/mL
same,concentration at 0.75 h,in vivo,11800 ng/mL
same,concentration at 1 h,in vivo,7100 ng/mL
C[C@@H](O)[C@H]1C(=O)N2C(C(=O)O)=C(SCCN)C[C@H]12 [Thienamycin],antibacterial activity,bacteria [1],highly potent broad-spectrum antibiotic
O=C(O)C1C(=CCO)OC2CC(=O)N21 (stereo not drawn) [clavulinic acid],antibacterial activity,bacteria [1],low order of antibacterial activity
same,β-lactamase inhibition,β-lactamases,inhibits the action of certain β-lactamases
same,effect on in vitro and in vivo activity of some penicillins and cephalosporins,bacteria [5],enhances the in vitro and in vivo activity of some penicillins and cephalosporins
"CC1=C(C(=O)O)N2C(=O)C[C@H]2S1 [d-2-methylpenem-3-carboxylic acid, (+)-2-methylpenem-3-carboxylic Acid]",MIC,K. pneumoniae A-20468,> 125 µg/mL
same,M.I.C.,Pr. rettgeri A-21205,4 meg./ml.
same,M.I.C.,Ps. aeruginosa A-9843A,32 meg./ml.
same,MIC,Ps. aeruginosa A-21213,63 µg/mL
"CC1=C(C(=O)O)N2C(=O)C[C@H]2S1 [l-2-methylpenem-3-carboxylic acid, (-)-2-methylpenem-3-carboxylic Acid]",M.I.C.,[2],> 125 meg./ml.
same,M.I.C.,[3],> 125 meg./ml.
same,M.I.C.,"Str. faecalis A-20688; Str. faecalis A-20688, overnight",125 meg./ml.
same,M.I.C.,"E. coli A-15119; E. coli A-15119, overnight",> 125 meg./ml.
same,M.I.C.,"E. coli A-20341-1; E. coli A-20341-1, overnight",> 125 meg./ml.
same,M.I.C.,"K. pneumoniae A-15130; K. pneumoniae A-15130, overnight",> 125 meg./ml.
same,M.I.C.,K. pneumoniae A-20468; overnight,> 125 meg./ml.
same,M.I.C.,"Pr. mirabilis A-9900; Pr. mirabilis A-9900, overnight",> 125 meg./ml.
same,M.I.C.,"Pr. vulgaris A-9716; Pr. vulgaris A-9716, overnight",> 125 meg./ml.
same,M.I.C.,"Pr. morganii A-15153; Pr. morganii A-15153, overnight",> 125 meg./ml.
same,M.I.C.,Pr. rettgeri A-21205,> 125 meg./ml.
same,M.I.C.,"Ser. marcescens A-20019; Ser. marcescens A-20019, overnight",> 125 meg./ml.
same,M.I.C.,"Ent. cloacae A-9659; Ent. cloacae A-9659, overnight",> 125 meg./ml.
same,M.I.C.,"Ent. cloacae A-9656; Ent. cloacae A-9656, overnight",> 125 meg./ml.
same,M.I.C.,Ps. aeruginosa A-9843A,> 125 meg./ml.
same,M.I.C.,"Ps. aeruginosa A-21213; Ps. aeruginosa A-21213, overnight",> 125 meg./ml.
